According to PMC12516379, “Rotamer-Controlled Self-Immolative Linkers Enable Tunable Release of Neurosteroid Oxime Prodrugs” (ACS Medicinal Chemistry Letters, 2025):

Legend:
[1] = Stability in acetate buffer pH 5.0 at room temperature via HPLC (UV); format: physicochemical
Method: (§1) Stability studies were conducted in PBS and acetate buffer utilizing high performance liquid chromatography for potential drug storage considerations. […]
(§2) All experiments were performed in duplicate and results are presented as the average of two experimental replicates.
(§3) 1.1 Aqueous Stability in PBS and Acetate Buffer via HPLC
(§4) Material and Instrumentation
(§5) HPLC grade acetonitrile (MeCN) […] HPLC grade water (H 2O), and formic acid (FA) were purchased from Fisher Scientific.
(§6) Puradisc 4 mm PTFE (0.45 μm) syringe filters from Cytiva. Gibco ® Dulbecco’s phosphate-buffered saline (DPBS 1X, no calcium, no magnesium, pH = 7.03) and acetate buffer (pH = 5.0, 10 mM) were purchased directly from Thermo Fisher Scientific and Cytiva, respectively.
(§7) Aqueous stability experiments were performed on an Agilent 1100 HPLC equipped with an Agilent G1315B diode array detector, an Agilent G1316A heated column compartment, and a Zorbax Eclipse XDB-C18 (4.6 x 150 mm, 5 μm) column.
(§8) Procedure for Aqueous Stability Experiments
(§9) Each sample was first weighed out in two separate 2.0 mL vials using an analytical balance.
(§10) Unless otherwise specified, the test compounds were then dissolved in the aqueous media (PBS or acetate buffer) at a standard concentration of 1 mg/mL. All mixtures were subsequently sonicated for approximately 30 sec. […]
(§11) min), precipitates observed in sample solutions were filtered with a PTFE syringe filter prior to analysis. Immediately after sample preparation, injection by the HPLC autosampler was performed, which was recorded as the initial time point (t = 0 min). Solutions were then kept in the autosampler at RT and reinjected at designated intervals without additional filtration or sample modification. Remaining prodrug was defined by the area under the curve (AUC) at 254 nm. Aqueous stability was ascertained by calculating the percentage of the parent compound remaining after each time point. Linear regression of the time (x-axis) vs. ln(%remaining) (y-axis) plot afforded the rate constant k (slope = -k). Pseudo first-order half-lives were then calculated by the following equation: t1/2 = 0.693/k.

[2] = PBS stability assay at 37 °C via LC-MS/MS; format: physicochemical; conditions: for half-life at 3 µM / remaining at 2 h, 3 µM: phosphate-buffered saline (DPBS); for half-life at 3 µM: pH 7.03, PBS; for PBS, 37 °C %rem. at 2h (Table S23) / half-life at 3 µM / remaining at 2 h, 3 µM: 37 °C; for remaining at 2 h, 3 µM: pH 7.03, read-out: % Remaining @ 2h, PBS, 37 °C (Tables S25, S26); for PBS, 37 °C %rem. at 2h (Table S23) / remaining at 2 h, 3 µM / Prodrug stability / self-immolation in buffer, in words: PBS
[3] = Plasma stability assay at 37 °C via LC-MS/MS, human plasma; format: in vitro ADME; conditions: for half-life at 3 µM: human, plasma;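 on all read-outs here: prodrugs at 3 µM incubated in human plasma at 37 °C, intact prodrug quantified by LC-MS/MS over time, values are means of duplicate runs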
Method: To address this, prodrug stability was further evaluated in human plasma at 37 °C using liquid chromatography–tandem mass spectrometry (LC-MS/MS). For direct comparison, a parallel screen was conducted in PBS under identical conditions (Table ). To prevent premature degradation prior to LC-MS/MS analysis, acetonitrile containing formic acid was used as a quenching solution to acidify and stabilize the prodrugs in vials. […] This limitation in detection, along with the need for a more uniform and broadly applicable assessment across all compounds, prompted us to monitor the formation of the parent oxime as an alternative readout.
Stability experiments in human plasma and PBS were performed via liquid chromatography-tandem mass spectrometry (LC-MS/MS) to determine and compare rate of cleavage of progesterone prodrugs as well as selected allopregnanolone prodrugs (3 µM) when incubated at 37 °C. All experiments were performed in duplicate and results are presented as the average of two experimental replicates.

[4] = Stability in PBS at room temperature via HPLC (UV); format: physicochemical; conditions: phosphate-buffered saline (DPBS)
Method: as §1, §2, §3, §4, §5, §6, §7, §8, §9, §10, §11

[5] = Aqueous solubility by visual inspection in acetate buffer (pH 5); conditions: for solubility: sodium acetate buffer, pH 5, aqueous buffer, thermodynamic from solid; for Stability in aqueous media during solubility assessment, in words: aqueous media (acetate buffer)
Method: For the solubility assessment, acetate buffer (pH 5) was selected as the media of choice to ensure prodrug stability during analysis.
High aqueous solubility was determined by visual inspection of 5 mg solid material in 0.5 mL
sodium acetate buffer solution. This media was selected to ensure stability of prodrugs during
dissolution in 50 mg/mL aqueous media.

[6] = pH 5, acetate buffer pH 5.0, RT, 1 mg/mL, HPLC 254 nm, read-out: t1/2 in acetate buffer at RT (Tables S5-S8) (converted)
[7] = pH 5, acetate buffer pH 5.0, rt, HPLC (UV), read-out: Half-life (t½) pH 5.0 rt (converted)
[8] = pH 5, acetate buffer pH 5.0, rt, read-out: t½: pH 5.0, rt (Table S23) (converted)
[9] = 3 µM, LC-MS/MS, read-out: t1/2 in PBS at 37 °C (Tables S14-S17) (converted)
[10] = LC-MS/MS, read-out: Half-life (t½) PBS 37°C (converted)
[11] = read-out: PBS, 37 °C t½ (Table S23) (converted)
[12] = read-out: t1/2 (h) PBS, 37 °C (Tables S25, S26) (converted)
[13] = 3 µM, LC-MS/MS, read-out: t1/2 in human plasma at 37 °C (Tables S10-S13, S18) (converted)
[14] = LC-MS/MS, read-out: Half-life (t½) Plasma 37°C (converted)
[15] = read-out: Plasma, 37 °C t½ (Table S23) (converted)
[16] = pH 7.03, DPBS pH 7.03, RT, 1 mg/mL, HPLC 254 nm, read-out: t1/2 in PBS buffer at RT (Tables S1-S4) (converted)
[17] = pH 7.03, PBS, rt, HPLC (UV), read-out: Half-life (t½) PBS rt (converted)
[18] = pH 7.03, PBS, rt, read-out: t½: PBS, rt (Table S23) (converted)
[19] = unit not given (h in Table S23), read-out: t1/2 of allopregnanolone prodrugs in PBS at 37 °C (Table S22) (converted)
[20] = unit not given (h in Table S23), read-out: t1/2 of allopregnanolone prodrugs in human plasma at 37 °C (Table S21) (converted)

SMILES | half-life at 1 mg/mL [1, 6] [h] | half-life at 1 mg/mL [1, 8] [h] | PBS, 37 °C %rem. at 2h (Table S23) [2] [%] | half-life at 3 µM [2, 9] [h] | half-life at 3 µM [2, 10] [h] | half-life at 3 µM [2, 11] [h] | Plasma, 37 °C %rem. at 2h (Table S23) [3] | half-life at 3 µM [3, 14] [h] | half-life at 3 µM [3, 15] [h] | half-life at 1 mg/mL [4, 16] [h] | half-life at 1 mg/mL [4, 18] [h] | solubility [5] [µg/mL] | half-life at 3 µM [2, 19] [h] | half-life at 3 µM [3, 20] [h] | further results
CNCCN(C(=O)O/N=C(\C)[C@H]1CC[C@H]2[C@@H]3CCC4=CC(=O)CC[C@]4(C)[C@H]3CC[C@]12C)C(C)C.O=C(O)C(F)(F)F [20c] | > 168 | > 168 | 53 | 3.27 | 3.27 | 3.27 | 47% | 1.59 | 1.59 | 19.7 ± 0.38 | 19.7 | > 10000 | – | – | half-life at 1 mg/mL [1, 7]: > 168 h; half-life at 3 µM [2, 12]: 3.27 h; remaining at 2 h, 3 µM [2]: 53%; half-life at 3 µM [3, 13]: 1.59 h; half-life at 1 mg/mL [4, 17]: 19.7 h
CNCCN(C(=O)O/N=C(\C)[C@H]1CC[C@H]2[C@@H]3CCC4=CC(=O)CC[C@]4(C)[C@H]3CC[C@]12C)C1CCC1.O=C(O)C(F)(F)F [20d] | > 168 | > 168 | 44 | 2.32 | 2.32 | 2.32 | 59% | 2.67 | 2.67 | 11.8 ± 0.51 | 11.8 | > 10000 | – | – | half-life at 1 mg/mL [1, 7]: > 168 h; half-life at 3 µM [2, 12]: 2.32 h; remaining at 2 h, 3 µM [2]: 44%; half-life at 3 µM [3, 13]: 2.67 h; half-life at 1 mg/mL [4, 17]: 11.8 h
CNCCN(C(=O)O/N=C(\C)[C@H]1CC[C@H]2[C@@H]3CCC4=CC(=O)CC[C@]4(C)[C@H]3CC[C@]12C)C1CCCC1.O=C(O)C(F)(F)F [20e] | > 168 | > 168 | 34 | 1.74 | 1.74 | 1.74 | 76% | 3.09 | 4.02 | 10.7 ± 0.15 | 10.7 | > 10000 | – | – | half-life at 1 mg/mL [1, 7]: > 168 h; half-life at 3 µM [2, 12]: 1.74 h; remaining at 2 h, 3 µM [2]: 34%; half-life at 3 µM [3, 13]: 4.02 h; half-life at 1 mg/mL [4, 17]: 10.7 h
CNCCN(CCN1CCOCC1)C(=O)O/N=C(\C)[C@H]1CC[C@H]2[C@@H]3CCC4=CC(=O)CC[C@]4(C)[C@H]3CC[C@]12C.O=C(O)C(F)(F)F [20j] | 99.4 | 99.4 | – | – | – | – | – | – | – | 21.77 ± 0.19 | 21.8 | > 10000 | – | – | half-life at 1 mg/mL [1, 7]: 99.4 h; half-life at 1 mg/mL [4, 17]: 21.8 h
C/C(=N\OC(=O)N(C)[C@H](C)[C@@H]1CCCN1)[C@H]1CC[C@H]2[C@@H]3CCC4=CC(=O)CC[C@]4(C)[C@H]3CC[C@]12C.O=C(O)C(F)(F)F [20p] | – | – | – | 0.61 | – | – | – | – | – | – | – | – | – | – | Prodrug stability / self-immolation in buffer, in words [2]: unstable compound; t1/2 in human plasma at 37 °C (Tables S10-S13, S18) ([3]; 3 µM, LC-MS/MS): unstable during; Stability in aqueous media during solubility assessment, in words [5]: poor stability
CNC1(CN(C)C(=O)O/N=C(\C)[C@H]2CC[C@H]3[C@@H]4CCC5=CC(=O)CC[C@]5(C)[C@H]4CC[C@]23C)CC1 [20s] | – | – | 93 | 18.5 | – | 18.5 | stable | – | > 24 | – | – | > 10000 | – | – | Prodrug stability / self-immolation in buffer, in words [2]: complete inhibition of cyclization; Half-life (t½) Plasma 37°C ([3]; LC-MS/MS): stable; half-life at 3 µM [3, 13]: > 24 h
C/C(=N\OC(=O)N(CCN)CCN)[C@H]1CC[C@H]2[C@@H]3CCC4=CC(=O)CC[C@]4(C)[C@H]3CC[C@]12C [20w] | > 168 | > 168 | – | – | – | – | – | – | – | 10.1 ± 0.41 | 10.1 | > 10000 | – | – | –
CNCCN(CCNC)C(=O)O/N=C(\C)[C@H]1CC[C@H]2[C@@H]3CCC4=CC(=O)CC[C@]4(C)[C@H]3CC[C@]12C.Cl.Cl [20x] | 72.2 | > 168 | – | – | – | – | – | – | – | 1.51 ± 0.05 | 1.51 | – | – | – | Stability in aqueous media during solubility assessment, in words [5]: poor stability
CNCCN(C)C(=O)O/N=C(\C)[C@H]1CC[C@H]2[C@@H]3CCC4C[C@H](O)CC[C@]4(C)[C@H]3CC[C@]12C.O=C(O)C(F)(F)F (stereo partly shown) [21a] | – | – | 88 | – | 9.51 | 12.2 | 13% | 1.27 | 0.59 | – | – | > 5000 | 12.2 | 0.59 | –
CNCCN(C(=O)O/N=C(\C)[C@H]1CC[C@H]2[C@@H]3CCC4C[C@H](O)CC[C@]4(C)[C@H]3CC[C@]12C)C1CC1.O=C(O)C(F)(F)F (stereo partly shown) [21b] | – | – | 73 | – | 4.08 | 4.08 | 16% | 0.73 | 0.73 | – | – | > 5000 | 4.08 | 0.73 | –
CNCCN(C(=O)O/N=C(\C)[C@H]1CC[C@H]2[C@@H]3CCC4C[C@H](O)CC[C@]4(C)[C@H]3CC[C@]12C)C(C)C.O=C(O)C(F)(F)F (stereo partly shown) [21c] | – | – | 68 | – | 3.78 | 3.78 | 16% | 0.51 | 0.76 | – | – | > 5000 | 3.78 | 0.51 | –
CNCCN(C(=O)O/N=C(\C)[C@H]1CC[C@H]2[C@@H]3CCC4C[C@H](O)CC[C@]4(C)[C@H]3CC[C@]12C)C1CCC1.O=C(O)C(F)(F)F (stereo partly shown) [21d] | – | – | 38 | – | 1.69 | 1.69 | 16% | 0.76 | 0.76 | – | – | > 5000 | 1.69 | 0.76 | –
CNCCN(CCn1ccnc1)C(=O)O/N=C(\C)[C@H]1CC[C@H]2[C@@H]3CCC4C[C@H](O)CC[C@]4(C)[C@H]3CC[C@]12C (stereo partly shown) [21k] | – | – | 62 | – | – | 4.12 | 14% | – | 0.81 | – | – | > 5000 | 4.12 | 0.81 | –
C/C(=N\OC(=O)N(C)C[C@@H]1CCCN1)[C@H]1CC[C@H]2[C@@H]3CCC4C[C@H](O)CC[C@]4(C)[C@H]3CC[C@]12C (stereo partly shown) [21l] | – | – | 16 | – | 0.94 | 0.94 | 2% | 0.36 | 0.36 | – | – | > 5000 | 0.94 | 0.36 | –
